Measured values as given in patent US20230337677A1, “ARYL AND PYRIDYL AMIDE PESTICIDES AND COMPOSITIONS THEREOF” (University of Florida Research Foundation, Incorporated, priority 2019, published 2023).
Structures can show the parent of a compound that is named as a salt.

Test system: Aedes aegypti mosquitoes, insecticide-susceptible Orlando strain
Type: in vivo
Details: for 1 h % Repellency, 100 μg/cm^2: screened at 100 μg/cm^2, strain not given; for vapor repellency / mortality, statement in words (Example 8): structure-activity analysis of Table 2; for 1 h Repellency EC50, μg/cm^2: (OR)
Method: The tubes as shown were held horizontally on the bench.
For assessing behavioral repellency (FIG. 1), Aedes aegypti mosquitoes were used from the insecticide-susceptible Orlando strain and the pyrethroid-resistant Puerto Rico strain. Sixteen female mosquitoes were transferred to a glass tube (12.5 cm long, 2.5 cm outer diameter) with the ends covered with netting. Each compound was dissolved in 1 mL of acetone and serial dilutions ranging from 30-0.01 μg/ml were made. Circular filter papers (5 cm^2) were saturated with 50 μL of each concentration and allowed 10 min for solvent evaporation. The filter papers were then placed in clear conical polypropylene caps and fixed to the end of the glass tubes. The netting prevented mosquito contact with the filter paper. The tubes were then aligned with a mark denoting the midline and the proportion of mosquitoes on the chemically treated side was scored for up to 60 min. At the end of the test, the tube was placed in a cage and the ability of the mosquitoes to fly out of the tube was assessed for 30 min. […] This post-test evaluated whether any non-responding mosquitoes (not repelled) resulted from intoxication or disorientation from the test chemical. For assessment of lethality, insects were held for 24 hr under constant exposure in glass tubes having treated filter papers.
Compounds were first screened at 100 μg/cm^2 for repellency and 24 h mortality.

## O=C(NCC(F)(F)F)Nc1c(Cl)cc(C(F)(F)F)cc1Cl [MTFI-4-FPL-A]
  1 h % Repellency, 100 μg/cm^2: 0%
  vapor repellency / mortality, statement in words (Example 8): reduced repellency

## CCCCOC(=O)c1ccccc1O [MTFI-5-14C]
In vivo
  knockdown in 1 hr repellency test (XXkd = number of insects incapacitated out of 16 females): 8

## O=C(CCl)Nc1cccc(O)c1 [MTFI-5-15A]
  1 h % Repellency, 100 μg/cm^2: 36%

## CC1(C)[C@H](C=C(Cl)Cl)[C@H]1C(=O)Nc1cc(F)cc(F)c1 [GMR179]
  1 h % Repellency, 100 μg/cm^2: 30%

## O=C(CCC1CCCCC1)Nc1ccc(C(F)(F)F)cc1 [MTFI-3-4B]
  1 h % Repellency, 100 μg/cm^2: 8%

## COC(=O)c1cc(C)c(C(F)(F)F)cc1N [MTFI-5-12C]
  1 h % Repellency, 100 μg/cm^2: 30%
  vapor repellency / mortality, statement in words (Example 8): moderate repellency in some instances

## COC(=O)c1cccc(C(F)(F)F)c1N [MTFI-5-512B]
  1 h % Repellency, 100 μg/cm^2: 42%

## CCCC(=O)Nc1ccccc1OC(F)(F)F [GMR171]
  1 h Repellency EC50, μg/cm^2: 29 μg/cm^2
  1 h % Repellency, 100 μg/cm^2: 100%

## O=C(Nc1ccccc1C(F)(F)F)C(F)(F)F [MTFI-1-4C]
  1 h % Repellency, 100 μg/cm^2: −6%

## COC(=O)c1ccccc1C(F)(F)F [MTFI-5-13A]
  1 h % Repellency, 100 μg/cm^2: 6%

## O=C(CCl)Nc1cccc(F)c1 [MTFI-5-1A]
  1 h % Repellency, 100 μg/cm^2: 6%

## O=C(NCC(F)(F)F)c1cc(F)c(F)c(F)c1 [GMR173]
  1 h % Repellency, 100 μg/cm^2: 44%
  vapor repellency / mortality, statement in words (Example 8): some repellency and mortality

## O=C(CCl)Nc1cc(C(F)(F)F)cc(C(F)(F)F)c1 [MTFI-3-1F]
  1 h % Repellency, 100 μg/cm^2: 88%

## O=C(Nc1cc(C(F)(F)F)cc(C(F)(F)F)c1)C(F)(F)C(F)(F)C(F)(F)F [MTFI-4-2D]
  1 h % Repellency, 100 μg/cm^2: 12%

## O=C(Nc1ccc(C(F)(F)F)cc1)c1cc(Cl)cc(Cl)c1 [MTFI-4-NA-1C]
  1 h % Repellency, 100 μg/cm^2: 8%
  vapor repellency / mortality, statement in words (Example 8): poor results

## COC(=O)c1ccccc1O [MTFI-5-14A]
  1 h % Repellency, 100 μg/cm^2: 70%
  vapor repellency / mortality, statement in words (Example 8): moderate repellency and toxicity

## O=C(CCC1CCCCC1)Nc1c(Cl)cc(C(F)(F)F)cc1Cl [MTFI-3-5A]
  1 h % Repellency, 100 μg/cm^2: 0%

## CCOC(=O)c1ccccc1O [MTFI-5-14B]
  1 h % Repellency, 100 μg/cm^2: 30%
  vapor repellency / mortality, statement in words (Example 8): moderate repellency and toxicity

## O=C(CCC1CCCCC1)Nc1cccc(C(F)(F)F)c1 [MTFI-3-3A]
  1 h % Repellency, 100 μg/cm^2: 16%

## COC(=O)c1cc(C(F)(F)F)ccc1N [MTFI-5-12D]
  1 h % Repellency, 100 μg/cm^2: 84%
  vapor repellency / mortality, statement in words (Example 8): moderate repellency in some instances

## C=CCCCC(=O)Nc1ccccc1C(F)(F)F [MTFI-3-2E]
  1 h % Repellency, 100 μg/cm^2: 76%

## COC(=O)c1cccc(C(F)(F)F)c1N [MTFI-5-12B]
  vapor repellency / mortality, statement in words (Example 8): moderate repellency in some instances

## COC(=O)c1cc(F)c(F)cc1N [MTFI-5-12A]
  1 h Repellency EC50, μg/cm^2: 23 μg/cm^2
  1 h % Repellency, 100 μg/cm^2: 92%
  vapor repellency / mortality, statement in words (Example 8): moderate repellency in some instances

## CC(=O)Nc1ccc(C(F)(F)F)cc1 [MTFI-3-4A]
  1 h % Repellency, 100 μg/cm^2: 8%

## CC1(C)C(C=C(Cl)Cl)C1C(=O)O (stereo not drawn) [TFA, 1R-transfluthrin acid, reference compound]
alone
  repellency of TFA alone: inactive alone

## C=CC(=O)Nc1ccccc1C(F)(F)F [GMR021]
  1 h Repellency EC50, μg/cm^2: 32 μg/cm^2
  1 h % Repellency, 100 μg/cm^2: 92%

## COC(=O)c1ccccc1N(C)C(F)(C(F)(F)F)C(F)(F)F [MTFI-5-11A]
  vapor repellency / mortality, statement in words (Example 8): moderate repellency in some instances

## CCCCCC(=O)N(C(=O)CCCCC)c1cccc(OC(F)(F)F)c1 [GMR165]
  1 h % Repellency, 100 μg/cm^2: 62%

## CCC(=O)Nc1ccccc1OC(F)(F)F [GMR170]
  1 h Repellency EC50, μg/cm^2: 15 μg/cm^2
  1 h % Repellency, 100 μg/cm^2: 94%

## CCOC(=O)c1ccccc1C(F)(F)F [MTFI-5-13B]
  1 h % Repellency, 100 μg/cm^2: 12%
